EC50 data for 49 molecules are collected here from ChEMBL document CHEMBL1154198, “Chemical genetics of Plasmodium falciparum” (Nature, 2010).

Each structure is given as a SMILES string.

The subject of assay [1] is Plasmodium falciparum. Put plainly: ST_JUDE: Plasmodium falciparum 3D7 EC50 (uM) as measured by SYBR green dye. It counts as functional, organism-based.
For assay [2], the system named is Plasmodium falciparum. Put plainly: ST_JUDE: Plasmodium falciparum K1 EC50 (uM) as measured by SYBR green dye. It counts as functional, organism-based.

With `O=C(Nc1ccc(-c2nc3cc(NC(=O)c4ccc(Br)o4)ccc3[nH]2)cc1)c1ccc(Br)o1`, the figures for the EC50 with Plasmodium falciparum [1] and in the assay on Plasmodium falciparum [2] were 2.59 µM and 3.23 µM, respectively.

In the case of `Cc1cccc(NC(c2cccc(Cl)c2)c2ccc3cccnc3c2O)n1` (stereo not drawn), the EC50 in the assay on Plasmodium falciparum [1] came to 3.47 µM; in the assay on Plasmodium falciparum [2], 3.34 µM.

On to `CCOC(=O)c1ccc(N2Cc3ccccc3C2)cc1O`, for which the EC50 with Plasmodium falciparum [1] and in the assay with Plasmodium falciparum [2] was above 15 µM in each case.

For the molecule `COc1cc(/C=C(\C#N)c2nc(-c3ccc(Cl)cc3)cs2)cc([N+](=O)[O-])c1O`, the 50% effective concentration (EC50) with Plasmodium falciparum [1] and in the assay on Plasmodium falciparum [2] was above 15 µM throughout.

As for `CCOc1cccc(-c2cc(C(=O)Nc3cc(C)ccn3)c3ccccc3n2)c1`, the half-maximal effective concentration (EC50) in the assay on Plasmodium falciparum [1] and in the assay with Plasmodium falciparum [2] was above 15 µM in each case.

With `Cc1cccc(CN2C(=O)/C(=C\c3ccc(C(=O)NC4CCCC4)cc3)Sc3ccccc32)c1`, the EC50 with Plasmodium falciparum [1] was determined as 3.99 µM; with Plasmodium falciparum [2], 4.69 µM.

As to `O=C(Nc1ccc([N+](=O)[O-])cc1)Nc1cc(Cl)cc(Cl)c1`, the EC50 in the assay with Plasmodium falciparum [1] and with Plasmodium falciparum [2] was above 15 µM throughout.

Consider `CS(=O)(=O)N(CC(=O)Nc1ccccc1Sc1ccccc1)c1ccc(Cl)c(Cl)c1`, for which the values for the half-maximal effective concentration (EC50) with Plasmodium falciparum [1] and in the assay with Plasmodium falciparum [2] were 4.06 µM and 5.95 µM, respectively.

Regarding `COc1ccc2nc(N(Cc3cccnc3)C(=O)C3CCCCC3)sc2c1`, the EC50 came out at 3.51 µM in the assay with Plasmodium falciparum [1] and 2.65 µM in the assay on Plasmodium falciparum [2].

For `COc1ccc(C2C(C(=O)Nc3cc(OC)ccc3OC)c3ccccc3C(=O)N2C)cc1` (stereo not drawn), the EC50 in the assay on Plasmodium falciparum [1] is above 15 µM; with Plasmodium falciparum [2], 6.96 µM.

With `CC(C)(C)OC(=O)CCN1C(=O)CSC1c1cnccc1-c1ccc(Br)cc1` (stereo not drawn), the EC50 was 2.32 µM with Plasmodium falciparum [1] and 3.17 µM with Plasmodium falciparum [2].

With `CCCSc1nc2sc3c(c2c(=O)n1-c1ccc(C)cc1)CCN(Cc1ccccc1)C3`, the EC50 was 1.31 µM in the assay on Plasmodium falciparum [1] and 1.61 µM in the assay on Plasmodium falciparum [2].

For the molecule `CCOC(=O)c1ccc(OCC2c3cc(OC)c(OC)cc3CCN2C(=O)Nc2ccccc2)cc1` (stereo not drawn), the EC50 was 4.03 µM in the assay on Plasmodium falciparum [1] and 0.776 µM in the assay with Plasmodium falciparum [2].

`CCCCC(=O)NC(c1ccc(Cl)cc1Cl)c1ccc2cccnc2c1O` (stereo not drawn): the EC50 in the assay with Plasmodium falciparum [1] is above 15 µM; with Plasmodium falciparum [2] it was 5.3 µM.

Take `N=C(N/N=C\c1ccc(F)cc1)N/N=C\c1ccc(F)cc1`: the values for the EC50 in the assay on Plasmodium falciparum [1] and in the assay with Plasmodium falciparum [2] were 0.753 µM and 4.74 µM, respectively.

For the molecule `COc1ccccc1/C=C/CN1CCC(C(Cc2ccccc2)N(C)C(=O)c2cc(C)nn2C)CC1` (stereo not drawn), the EC50 in the assay with Plasmodium falciparum [1] and in the assay on Plasmodium falciparum [2] was above 15 µM throughout.

`CCN(CC)C(=O)c1sc(NC(=O)CCc2ccccc2)c(C(=O)OC(C)C)c1C`: the EC50 in the assay with Plasmodium falciparum [1] and in the assay on Plasmodium falciparum [2] was above 15 µM each time.

Regarding `Cc1nc2sc(C(c3ccc(Cl)cc3)N3CCC4(CC3)OCCO4)c(O)n2n1` (stereo not drawn), the concentration giving a half-maximal response (EC50) with Plasmodium falciparum [1] and in the assay with Plasmodium falciparum [2] was above 15 µM throughout.

Turning to `CCCCC(=O)NC(c1ccc(C(C)C)cc1)c1cc([N+](=O)[O-])c2cccnc2c1O` (stereo not drawn), the EC50 in the assay with Plasmodium falciparum [1] is above 15 µM; in the assay with Plasmodium falciparum [2], 5.13 µM.

For the molecule `CCOc1ccc(NC(=O)C2c3ccccc3C(=O)N(C3CCCC3)C2c2cccs2)cc1` (stereo not drawn), the EC50 turned out to be 2.95 µM in the assay with Plasmodium falciparum [1] and 3.88 µM in the assay with Plasmodium falciparum [2].

`COc1ccc2cc3cc(C(=O)Nc4ccccc4N4CCN(C)CC4)sc3nc2c1`: the EC50 in the assay with Plasmodium falciparum [1] and in the assay with Plasmodium falciparum [2] was above 15 µM each time.

Take `CCN(CC)c1cc(C)c2cc(NC(=O)c3ccc(Cl)c([N+](=O)[O-])c3)ccc2n1`: the EC50 in the assay with Plasmodium falciparum [1] and with Plasmodium falciparum [2] was above 15 µM each time.

For `O=C(NC(NC(=S)Nc1ccc(Cl)cc1)C(Cl)(Cl)Cl)c1ccccc1F` (stereo not drawn), the results for the EC50 in the assay with Plasmodium falciparum [1] and in the assay on Plasmodium falciparum [2] were 2.73 µM and 4.07 µM, respectively.

As for `Cc1cc(N2CCN(C)CC2)nc2ccc(NC(=S)NCCN3CCN(c4ccccc4F)CC3)cc12`, the values for the EC50 in the assay with Plasmodium falciparum [1] and in the assay on Plasmodium falciparum [2] were 2 µM and 6.21 µM, respectively.

As for `CC(C)(C)c1ccc(C(=O)Nc2cccc(NC(=O)c3cccs3)c2)cc1`, the EC50 in the assay with Plasmodium falciparum [1] and with Plasmodium falciparum [2] was above 15 µM in each case.

In the case of `Cc1ccc(C(C)(C)C)c(OCCCCn2ccnc2)c1`, the figures for the EC50 in the assay on Plasmodium falciparum [1] and with Plasmodium falciparum [2] were 6.66 µM and 5.68 µM, respectively.

On to `CCC(=O)NC(c1ccc(OC)c(OC)c1)c1ccc2cccnc2c1O` (stereo not drawn), for which the EC50 with Plasmodium falciparum [1] is 3.8 µM; with Plasmodium falciparum [2] it was 4.78 µM.

Consider `COc1cc(/C=C/C(=O)Nc2cccc(Br)c2)cc(OC)c1OC`, for which the EC50 in the assay with Plasmodium falciparum [1] and in the assay with Plasmodium falciparum [2] was above 15 µM in each case.

Consider `CCc1ccc(C(Nc2ccccn2)c2ccc3cccnc3c2O)cc1` (stereo not drawn), for which the EC50 in the assay with Plasmodium falciparum [1] stood at 2.31 µM; in the assay with Plasmodium falciparum [2] it was 2.72 µM.

`O=C(CN(Cc1ccc(F)cc1)S(=O)(=O)c1ccc(Cl)cc1)Nc1ccccc1Cl`: the values for the EC50 in the assay with Plasmodium falciparum [1] and with Plasmodium falciparum [2] were above 15 µM and 1.46 µM, respectively.

For `CCOc1ccc(/C=C2\Oc3c(ccc(O)c3CN(CC)CC)C2=O)cc1`, the results for the EC50 in the assay with Plasmodium falciparum [1] and in the assay on Plasmodium falciparum [2] were above 15 µM and 5.17 µM, respectively.

For the molecule `CCOc1ccc(-c2nc(NC(=O)c3cccc(S(C)(=O)=O)c3)sc2C)cc1`, the EC50 with Plasmodium falciparum [1] and in the assay on Plasmodium falciparum [2] was above 15 µM each time.

Consider `CCc1c(C)nc(-n2nc(C)cc2NC(=O)c2cccc(OC)c2)nc1O`, for which the EC50 with Plasmodium falciparum [1] and with Plasmodium falciparum [2] was above 15 µM in each case.

For the molecule `Cc1cccn2c(=O)nc(SCc3cccc(F)c3)nc12`, the EC50 in the assay with Plasmodium falciparum [1] was above 15 µM; in the assay on Plasmodium falciparum [2], 10.1 µM.

`CC(C)COc1ccc(COC2C(C3COC(C)(C)O3)OC3OC(C)(C)OC32)cc1` (stereo not drawn): the EC50 in the assay on Plasmodium falciparum [1] was 7.79 µM; in the assay with Plasmodium falciparum [2], above 15 µM.

As for `CCN1CCN(c2cc(C)c3cc(NC(=S)NCCN4CCN(c5cccc(Cl)c5)CC4)ccc3n2)CC1`, the EC50 came out at 2.4 µM in the assay with Plasmodium falciparum [1] and 6.15 µM in the assay on Plasmodium falciparum [2].

Take `COc1ccc(S(=O)(=O)n2nc(-c3ccc(Cl)cc3)cc2N)cc1OC`: the values for the EC50 in the assay on Plasmodium falciparum [1] and in the assay on Plasmodium falciparum [2] were 6.54 µM and above 15 µM, respectively.

For `Cn1c(=N)n(CC(O)c2ccc(Cl)c(Cl)c2)c2ccccc21` (stereo not drawn), the EC50 in the assay with Plasmodium falciparum [1] was determined as 2.3 µM; in the assay with Plasmodium falciparum [2] it was 2.43 µM.

Regarding `O=C(c1cccs1)N(Cc1cccnc1)c1nc2c(Cl)cccc2s1`, the EC50 was above 15 µM in the assay on Plasmodium falciparum [1] and 3.84 µM in the assay on Plasmodium falciparum [2].

With `COc1ccc(-c2onc(C(F)(F)F)c2Oc2cnn(-c3ccccc3)c2)c(O)c1`, the results for the EC50 in the assay with Plasmodium falciparum [1] and with Plasmodium falciparum [2] were 1.81 µM and 1.61 µM, respectively.

Regarding `COc1ccc(CN2CCCC(N3CCN(c4ccc(F)cc4)CC3)C2)c(O)c1` (stereo not drawn), the 50% effective concentration (EC50) with Plasmodium falciparum [1] is 1.61 µM; with Plasmodium falciparum [2], 1.04 µM.

For the molecule `CCCc1cc(O)nc(-n2nc(C)cc2NC(=O)c2cc(C(F)(F)F)cc(C(F)(F)F)c2)n1`, the EC50 in the assay with Plasmodium falciparum [1] and with Plasmodium falciparum [2] was above 15 µM in each case.

On to `CCC(=O)NC(c1ccc(N(C)C)cc1)c1ccc2cccnc2c1O` (stereo not drawn), for which the values for the EC50 in the assay with Plasmodium falciparum [1] and in the assay with Plasmodium falciparum [2] were 4.07 µM and 4.44 µM, respectively.

As for `CCCCCN1CCN(c2nc3c(c(=O)[nH]c(=O)n3C)n2Cc2ccc(C)cc2)CC1`, the EC50 in the assay with Plasmodium falciparum [1] and in the assay with Plasmodium falciparum [2] was above 15 µM each time.

As to `O=C1CC(c2ccc(Cl)cc2Cl)C2=C(CC(c3ccc(F)cc3)CC2=O)N1` (stereo not drawn), the half-maximal effective concentration (EC50) with Plasmodium falciparum [1] and with Plasmodium falciparum [2] was above 15 µM throughout.

`COc1ccc(OC)c(/C=N/Nc2nc3ccccc3[nH]2)c1`: the EC50 was 3.64 µM in the assay on Plasmodium falciparum [1] and above 15 µM with Plasmodium falciparum [2].

As for `CCCc1cc(O)nc(-n2nc(C)cc2NC(=O)c2cc(C)cc(C)c2)n1`, the EC50 in the assay with Plasmodium falciparum [1] and in the assay on Plasmodium falciparum [2] was above 15 µM each time.

On to `CCc1ccc(C(Nc2ccccn2)c2cc(Cl)c3cccnc3c2O)cc1` (stereo not drawn), for which the EC50 with Plasmodium falciparum [1] is 4.41 µM; with Plasmodium falciparum [2] it was above 15 µM.

As for `Cc1cc(C)c2c(c1)c(-c1ccccc1)c(-c1ccccc1)n2CC(O)CN1CCN(CCO)CC1` (stereo not drawn), the EC50 in the assay on Plasmodium falciparum [1] worked out at 2.16 µM; with Plasmodium falciparum [2], 1.59 µM.

In general, EC50 refers to the concentration needed to bring the measured effect to its halfway point. A low value points to greater potency.
